Oligonucleotides are written 5' to 3', each unit as a sugar letter and its base; * is a phosphorothioate linkage, no mark a phosphodiester; rarer units and linkages stand in square brackets, end groups in braces. Plain capitals give the bases only. d = 2'-deoxy (DNA)
Experiments:
Assay type in all cases: cell-based, human
[1] = system: HepG2 hepatocellular carcinoma; test: Relative colony forming efficiency (Example 17, Table 13); details: averages of 2-8 determinations
Outline: (§1)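 0.2 μM oligo (default) + 2.5 μg Lipofectin, 4 h exposure; methylene blue stain, colonies counted; vs lipofectin-alone control, reported as % inhibition.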

[2] = system: MDA-MB-231 breast cell adenocarcinoma; test: as above; details: averages of 2-8 determinations
Outline: as §1

A549 lung cell carcinoma = test: as above; details: averages of 2-8 determinations
Outline: as §1

[3] = system: PC-3 prostrate cell adenocarcinoma; test: as above; details: averages of 2-8 determinations
Outline: as §1

[4] = system: T24 bladder cell carcinoma; test: as above; details: averages of 2-8 determinations
Outline: as §1

Hela S3 cells = test: Relative colony forming efficiency, lipofectin +/- oligonucleotide 4 hours; details: Hela S3 cervix carcinoma cells; averages of 2-8 determinations
Experimental: Colony forming efficiency was determined using standard protocols. Briefly, the cells were cultured for 24 hours at 37° C. in growth medium with 10% fetal bovine serum. The cells were washed in 5 ml phosphate buffered saline, pH 7.2, once prior to lipofectin +/−oligonucleotide treatment.
The test oligonucleotides were added to cell cultures in the presence of 2.5 μg of DOTMA/DOPE (Lipofectin; Life Technologies, Inc.) for four hours. The oligonucleotide was tested at 0.2 μM unless otherwise indicated. Controls were the cultures treated with lipofectin but without the oligonucleotide. After 4 hours the medium containing the oligonucleotide was removed and washed with 5 ml of growth medium. The cells were then cultured in growth medium containing 10% fetal bovine serum for seven to ten days. Surviving cells were visualized by methylene blue staining, and colonies were scored. In some experiments cell aliquots were removed from the culture and viability was determined using the trypan blue exclusion test. Results were analyzed as percent of surviving cells compared to control cells.
AS-II-336-20 was tested for the ability to inhibit the proliferation of human tumour cells (Hela). Hela S3 cells (American Type Culture Collection, Rockville, Md., ATCC), and a Hela cell line (Hela 1 mM) previously selected for resistance to the antitumour agent, hydroxyurea, were tested (see results in Table 11). Two experiments were undertaken with Hela S3 cells. […] The same experiment was repeated with the Hela 1 mM cell line and with varying concentrations of the antisense construct AS-II-336-20 (see results in Table 11) with similar results, […] was an effective concentration for inhibiting colony formation.
To test the antisense effects of many of these sequences as phosphorthioate deoxyribonucleotides, they were examined in relative colony forming experiments conducted as described in Example 16 with a series of human tumour cell lines. The results (shown as % inhibition of colony forming ability) obtained with cancer cells derived from the bladder, breast, lung, colon, pancreas, prostate, liver and cervix, are shown in Table 13. The specific cell lines employed are as follows:
T24=bladder cell carcinoma HCT116=colon cell carcinoma A549=lung cell carcinoma MDA-MB-231=breast cell adenocarcinoma […]=pancreatic cell carcinoma PC-3=prostrate cell adenocarcinoma HepG2=hepatocellular carcinoma HeLaS3=cells isolated from a carcinoma of the cervix T-47D=breast ductal carcinoma H596=lung adenosquamous carcinoma cells Colo320=colon cell adenocarcinoma

[5] = system: MDA PaCa-2 pancreatic cell carcinoma; test: Relative colony forming efficiency (Example 17, Table 13); details: MIA PaCa-2 pancreatic cell carcinoma; averages of 2-8 determinations
Outline: as §1

[6] = system: HCT116 colon cell carcinoma; test: as above; details: averages of 2-8 determinations
Outline: as §1

Sequence | Reduced relative colony forming efficiency, HepG2 (% inhibition of colony forming ability) [1] [%] | Reduced relative colony forming efficiency, MDA-MB-231 (% inhibition of colony forming ability) [2] [%] | Reduced relative colony forming efficiency, A549 (% inhibition of colony forming ability) (A549 lung cell carcinoma) [%] | Reduced relative colony forming efficiency, PC-3 (% inhibition of colony forming ability) [3] [%] | Reduced relative colony forming efficiency, T24 (% inhibition of colony forming ability) [4] [%] | Reduced relative colony forming efficiency, Hela S3 (% inhibition of colony forming ability) (Hela S3 cells) [%] | Reduced relative colony forming efficiency, MIA PaCa-2 (% inhibition of colony forming ability) [5] [%] | Reduced relative colony forming efficiency, HCT116 (% inhibition of colony forming ability) [6] [%]
AACTTCTTGGCTAAATCGCT (antisense dA*dA*dC*dT*dT*dC*dT*dT*dG*dG*dC*dT*dA*dA*dA*dT*dC*dG*dC*dT) [AS-II-634-20] | 95.78 | 92.44 | 57.76 | 77.86 | 83.52 | 48.94 |  | 
ACCCCTCACTCCAGCAGCCT (antisense dA*dC*dC*dC*dC*dT*dC*dA*dC*dT*dC*dC*dA*dG*dC*dA*dG*dC*dC*dT) [AS-II-110-20] | 97.14 | 90.92 | 89.38 | 92.06 | 87.78 | 53.98 | 47.51 | 71.69
CCTCCTCGGCGGTCCAAAAG (antisense dC*dC*dT*dC*dC*dT*dC*dG*dG*dC*dG*dG*dT*dC*dC*dA*dA*dA*dA*dG) [AS-II-494-20] | 93.37 | 54.78 | 33.85 | 30.6 | 54.23 | 43.62 | 25.31 | 50.28
CGGCGGCGTGTTCTCCTTGT (antisense dC*dG*dG*dC*dG*dG*dC*dG*dT*dG*dT*dT*dC*dT*dC*dC*dT*dT*dG*dT) [AS-II-280-20] | 97.14 | 79.14 | 61.81 | 77.51 | 90.56 | 41.79 | 53.94 | 69.42
GGAAGATGACAAAGCGGCGG (antisense dG*dG*dA*dA*dG*dA*dT*dG*dA*dC*dA*dA*dA*dG*dC*dG*dG*dC*dG*dG) [AS-II-425-20] | 97.89 | 89.75 | 57.38 | 75.65 | 90.37 | 63.09 | 65.2 | 
GGCATCAGTCCTCGTTTCTT (antisense dG*dG*dC*dA*dT*dC*dA*dG*dT*dC*dC*dT*dC*dG*dT*dT*dT*dC*dT*dT) [AS-II-933-20] |  | 64.39 | 53.52 | 36.91 | 64.84 | 26.86 | 35.68 | 67.24
GGTTTTCTCTCAGCAGCGGC (antisense dG*dG*dT*dT*dT*dT*dC*dT*dC*dT*dC*dA*dG*dC*dA*dG*dC*dG*dG*dC) [AS-II-404-20] | 84.79 | 85.83 | 52.17 | 77.08 | 84.26 | 58.37 | 17.84 | 
TATCTCTCCTCGGGTTTCAG (antisense dT*dA*dT*dC*dT*dC*dT*dC*dC*dT*dC*dG*dG*dG*dT*dT*dT*dC*dA*dG) [AS-II-549-20] | 84.04 | 40.13 | 30.57 |  | 45.46 | 27.8 | 17.01 | 47.83
TCCTTTATCCCACAACACTC (antisense dT*dC*dC*dT*dT*dT*dA*dT*dC*dC*dC*dA*dC*dA*dA*dC*dA*dC*dT*dC) [AS-II-2067-20] | 90.36 | 49.68 | 64.71 |  | 49.6 | 24.88 | 41.08 | 47.16
TCGCTCCACCAAGTTTTCAT (antisense dT*dC*dG*dC*dT*dC*dC*dA*dC*dC*dA*dA*dG*dT*dT*dT*dT*dC*dA*dT) [AS-II-619-20] | 92.02 | 91.08 | 65.67 | 88.01 | 86.3 | 31.22 | 39.83 | 
TGTAAACCCTCATCTCTGCT (antisense dT*dG*dT*dA*dA*dA*dC*dC*dC*dT*dC*dA*dT*dC*dT*dC*dT*dG*dC*dT) [AS-II-981-20] | 95.03 | 91.48 | 74.25 | 85.16 | 86.3 | 69.43 |  | 66.84
TTAGTCTTTCCTTCCAGTGA (antisense dT*dT*dA*dG*dT*dC*dT*dT*dT*dC*dC*dT*dT*dC*dC*dA*dG*dT*dG*dA) [AS-II-1254-20] | 83.28 |  | 36.74 | 73.31 | 41.53 | 7.64 | 3.32 | 28.54

Reference: patent publication US20080311126A1, “Antisense Oligonucleotides Directed to Ribonucleotide Reducatase R2 and Uses Thereof in Combination Therapies for the Treatment of Cancer” (Genesense Technologies, Inc, priority 2004, published 2008)
